From ChEMBL document CHEMBL5465560, “Selectivity Literature for EUbOPEN Chemogenomic Library” (2024)

Columns and labels:
[1] = target: T1, Phosphatidylinositol 5-phosphate 4-kinase type-2 gamma (Homo sapiens) (UniProt Q8TBX8); experiment: Selectivity interaction (ActivX KiNativ screen (ex vivo kinase selectivity in human PBMCs)) EUB0001619a PIP4K2C; assay type: cell-based; conditions: PBMC, at 1 µM
T1 sequence (whole entry): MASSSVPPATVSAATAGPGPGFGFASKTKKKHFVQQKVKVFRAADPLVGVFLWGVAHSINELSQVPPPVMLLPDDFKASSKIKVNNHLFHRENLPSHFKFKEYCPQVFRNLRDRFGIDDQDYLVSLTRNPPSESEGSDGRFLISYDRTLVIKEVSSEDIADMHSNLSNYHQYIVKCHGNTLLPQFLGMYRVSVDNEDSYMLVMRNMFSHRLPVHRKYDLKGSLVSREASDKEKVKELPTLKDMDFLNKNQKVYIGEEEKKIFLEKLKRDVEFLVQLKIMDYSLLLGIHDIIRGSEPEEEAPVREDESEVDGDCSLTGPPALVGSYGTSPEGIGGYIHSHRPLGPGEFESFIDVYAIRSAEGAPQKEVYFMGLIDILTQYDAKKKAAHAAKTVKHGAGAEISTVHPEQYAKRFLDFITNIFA

[2] = target: T2, NUAK family SNF1-like kinase 2 (Homo sapiens) (UniProt Q9H093); experiment: Selectivity interaction (KinomeScan (DiscoverX)) EUB0001619a NUAK2; conditions: at 1 µM
T2 sequence (whole entry): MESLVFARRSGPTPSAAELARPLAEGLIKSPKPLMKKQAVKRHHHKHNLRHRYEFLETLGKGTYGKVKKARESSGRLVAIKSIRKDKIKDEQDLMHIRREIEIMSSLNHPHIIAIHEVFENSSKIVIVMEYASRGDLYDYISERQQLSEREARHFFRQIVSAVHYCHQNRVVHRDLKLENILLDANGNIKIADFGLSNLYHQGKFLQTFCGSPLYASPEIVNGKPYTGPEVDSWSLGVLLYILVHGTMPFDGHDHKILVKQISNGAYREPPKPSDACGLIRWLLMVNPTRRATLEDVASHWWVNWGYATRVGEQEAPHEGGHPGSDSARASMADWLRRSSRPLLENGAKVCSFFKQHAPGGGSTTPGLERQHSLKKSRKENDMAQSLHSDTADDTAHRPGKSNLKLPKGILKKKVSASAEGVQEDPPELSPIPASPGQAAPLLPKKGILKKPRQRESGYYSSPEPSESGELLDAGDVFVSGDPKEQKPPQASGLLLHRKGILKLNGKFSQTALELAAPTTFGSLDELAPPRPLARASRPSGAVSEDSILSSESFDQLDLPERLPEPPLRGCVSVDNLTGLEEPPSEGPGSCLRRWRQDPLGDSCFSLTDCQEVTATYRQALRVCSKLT

[3] = target: Serine/threonine-protein kinase 24 (Homo sapiens) (UniProt Q9Y6E0); conditions: at 10 µM
Serine/threonine-protein kinase 24 (Homo sapiens), sequence (Q9Y6E0 whole entry, looked up): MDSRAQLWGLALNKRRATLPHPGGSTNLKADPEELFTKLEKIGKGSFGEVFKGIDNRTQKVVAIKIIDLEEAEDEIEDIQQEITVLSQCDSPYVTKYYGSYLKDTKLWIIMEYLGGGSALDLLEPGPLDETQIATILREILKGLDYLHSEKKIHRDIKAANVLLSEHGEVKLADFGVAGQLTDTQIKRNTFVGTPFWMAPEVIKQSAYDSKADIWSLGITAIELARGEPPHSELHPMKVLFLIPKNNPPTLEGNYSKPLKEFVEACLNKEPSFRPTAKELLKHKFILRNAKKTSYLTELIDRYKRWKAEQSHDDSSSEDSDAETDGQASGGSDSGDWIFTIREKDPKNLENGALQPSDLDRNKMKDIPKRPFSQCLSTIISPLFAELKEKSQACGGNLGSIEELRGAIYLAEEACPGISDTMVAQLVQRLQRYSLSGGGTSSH

[4] = target: Calcium/calmodulin-dependent protein kinase type II subunit beta (Homo sapiens) (UniProt Q13554); experiment: Selectivity interaction (Kinase panel (Invitrogen)) EUB0000639a CAMK2B; conditions: at 200 nM
Calcium/calmodulin-dependent protein kinase type II subunit beta (Homo sapiens), sequence (Q13554 whole entry): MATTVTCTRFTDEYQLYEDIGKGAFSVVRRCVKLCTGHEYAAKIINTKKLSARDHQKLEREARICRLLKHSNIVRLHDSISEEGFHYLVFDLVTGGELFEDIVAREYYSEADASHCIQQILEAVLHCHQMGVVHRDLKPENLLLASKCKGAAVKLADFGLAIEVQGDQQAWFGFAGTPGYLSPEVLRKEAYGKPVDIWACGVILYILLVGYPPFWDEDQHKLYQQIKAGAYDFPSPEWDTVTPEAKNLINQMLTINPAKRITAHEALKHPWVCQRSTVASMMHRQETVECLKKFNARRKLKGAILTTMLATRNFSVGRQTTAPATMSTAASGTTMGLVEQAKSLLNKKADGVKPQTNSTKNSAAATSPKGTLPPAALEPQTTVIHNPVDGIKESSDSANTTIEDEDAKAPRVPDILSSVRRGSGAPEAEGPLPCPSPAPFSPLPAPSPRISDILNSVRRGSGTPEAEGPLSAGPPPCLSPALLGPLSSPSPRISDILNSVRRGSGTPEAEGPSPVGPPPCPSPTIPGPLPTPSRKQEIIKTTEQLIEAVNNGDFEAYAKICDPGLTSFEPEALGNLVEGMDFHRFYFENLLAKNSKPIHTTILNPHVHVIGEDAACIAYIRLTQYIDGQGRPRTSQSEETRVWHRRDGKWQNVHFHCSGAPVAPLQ

[5] = target: Serine/threonine-protein kinase Nek6 (Homo sapiens) (UniProt Q9HC98); experiment: Selectivity interaction (KinomeScan (DiscoverX)) EUB0000229b NEK6; conditions: at 10 µM
Serine/threonine-protein kinase Nek6 (Homo sapiens), sequence (Q9HC98 whole entry): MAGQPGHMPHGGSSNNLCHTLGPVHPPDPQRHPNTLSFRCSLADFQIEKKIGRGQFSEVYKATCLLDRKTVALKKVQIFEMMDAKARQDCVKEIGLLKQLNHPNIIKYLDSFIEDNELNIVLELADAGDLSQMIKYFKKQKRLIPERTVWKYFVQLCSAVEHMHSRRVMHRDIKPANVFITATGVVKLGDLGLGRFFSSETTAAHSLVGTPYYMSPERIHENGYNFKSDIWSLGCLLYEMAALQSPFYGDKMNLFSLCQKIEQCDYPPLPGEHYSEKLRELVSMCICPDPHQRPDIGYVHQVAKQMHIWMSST

[6] = target: T3, Mitogen-activated protein kinase kinase kinase kinase 3 (Homo sapiens) (UniProt Q8IVH8); experiment: Selectivity interaction (KinomeScan (DiscoverX)) EUB0001049a MAP4K3; conditions: at 1 µM
T3 sequence (whole entry): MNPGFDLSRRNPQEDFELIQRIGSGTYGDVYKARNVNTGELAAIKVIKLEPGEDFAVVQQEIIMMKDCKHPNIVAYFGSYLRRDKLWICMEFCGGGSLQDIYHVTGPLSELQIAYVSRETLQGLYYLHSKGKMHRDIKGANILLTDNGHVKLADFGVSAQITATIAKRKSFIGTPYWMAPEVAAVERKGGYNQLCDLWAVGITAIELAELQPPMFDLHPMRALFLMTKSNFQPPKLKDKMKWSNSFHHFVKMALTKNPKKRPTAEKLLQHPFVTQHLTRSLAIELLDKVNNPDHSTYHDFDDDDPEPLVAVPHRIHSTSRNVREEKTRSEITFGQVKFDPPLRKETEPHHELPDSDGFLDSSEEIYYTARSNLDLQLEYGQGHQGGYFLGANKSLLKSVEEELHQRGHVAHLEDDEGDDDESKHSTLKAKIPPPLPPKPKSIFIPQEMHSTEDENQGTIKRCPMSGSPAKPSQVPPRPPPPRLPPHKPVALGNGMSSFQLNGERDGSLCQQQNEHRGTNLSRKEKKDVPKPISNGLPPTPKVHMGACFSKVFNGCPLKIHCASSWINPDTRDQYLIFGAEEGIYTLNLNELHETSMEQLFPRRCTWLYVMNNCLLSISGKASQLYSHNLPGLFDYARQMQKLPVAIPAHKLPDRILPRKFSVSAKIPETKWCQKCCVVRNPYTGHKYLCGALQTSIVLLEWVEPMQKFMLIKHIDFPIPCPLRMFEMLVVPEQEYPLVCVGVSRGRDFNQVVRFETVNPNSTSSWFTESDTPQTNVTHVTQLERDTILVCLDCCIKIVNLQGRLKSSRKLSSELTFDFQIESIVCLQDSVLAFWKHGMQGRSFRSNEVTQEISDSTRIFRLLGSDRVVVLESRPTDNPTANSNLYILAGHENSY

**Q.** Which results are given for `N#Cc1cccc(-c2c[nH]c3ncnc(N4CCOCC4)c23)c1`?
**A.** % of inhibition [1]: 54%; % of control [2]: 18%

**Q.** Which % of control [3] does the source give for `Cc1cc([C@@H](C)Nc2ccccc2C(=O)O)c2nc(N3CCOCC3)cc(=O)n2c1` [AZD-6482] here?
**A.** Its % of control is 100%.

**Q.** `CC[C@@H]1[C@H](F)C(=O)N[C@@H]1COc1nccc2cc(C(N)=O)c(OC)cc12` [ZIMLOVISERTIB] was tested. Which % of inhibition [4] did it give?
**A.** The % of inhibition was 10.8%.

**Q.** `COc1cc(N(C)c2ccnc3ccc(C(F)(F)F)cc23)cc(OC)c1OC` was tested. Which % binding [5] did it give?
**A.** Its % binding is 100%.

**Q.** For `COc1cc(Nc2nc(C)cc(-c3cnn4nc(OC)ccc34)n2)cc(C(F)(F)F)c1`, which % of control [6] is on record?
**A.** Its % of control is 100%.
